Experimental data: patent US6511966B2, “Mitochondria protecting agents for treating mitochondria associated diseases” (MitoKor, priority 1998, dated 2003)

Tested on: SH-SY5Y human neuroblastoma cells
Experiment: DCFC assay for inhibition of ROS production, cell-based aspect
Conditions: Homo sapiens, 0.5 h; SH-SY5Y cells pre-loaded with DCFC-DA; ferric chloride/ascorbate induced free radical formation; fluorescence change over 30 minutes; read-out: IC50 Cell-Based (Inhibition of ROS, DCFC assay)
From the text: According to this assay, the ability of a mitochondria protecting agent of the invention to inhibit production of ROS intracellularly may be compared to its antioxidant activity in a cell-free environment. […] Non-fluorescent DCFC is converted upon oxidation to a fluorophore that can be quantified fluorimetrically. Cell membranes are also permeable to DCFC, but the charged acetate groups of DCFC are removed by intracellular esterase activity, rendering the indicator less able to diffuse back out of the cell. In the cell-based aspect of the DCFC assay for inhibition of production of ROS, cultured cells may be pre-loaded with a suitable amount of DCFC and then contacted with a mitochondria protecting agent. After an appropriate interval, free radical production in the cultured cells may be induced by contacting them with iron (III)/ascorbate and the relative mean DCFC fluorescence can be monitored as a function of time. In the cell-based aspect of the DCFC assay, monolayers of cultured adherent SH-SY5Y human neuroblastoma cells (Biedler et al., Cancer Res. 33:2643, 1973) at or near confluence were rinsed and harvested using trypsin according to standard methods. […] The excess DCFC-DA was removed by needle aspiration and each well was gently rinsed twice with HBSS. Each well then received 80 μl of HBSS and 10 μl of mitochondria protecting agent, or vehicle control, diluted into HBSS from stock solutions of dimethylformamide or dimethylsulfoxide. The final concentration of the organic solvent was maintained at or below 0.1% (v/v) in HBSS while in contact with cells. Cells were equilibrated for 15 minutes at room temperature with the mitochondria protecting agent (or vehicle control) and then 10 μl of fresh 500 μM ferric chloride/300 μM ascorbate solution was added to initiate free radical formation. Fluorescence of each microculture in the 96-well plate was quantified immediately using a Cytofluor fluorimetric plate reader (model #2350, Millipore Corp., Bedford, Mass.; excitation wavelength=485 nm, emission wavelength=[…]) and t0 fluorescence was recorded. The 96-well plates were incubated 30 minutes at 37° C./5% CO2 and fluorescence at 530 nm was again measured (t30). […] The cells were then harvested by trypsinization and counted using a hemacytometer in order to normalize the data as Δ(t30,−t0)RMF per cell. The efficacy of a candidate mitochondria protecting agent was determined by comparing its ability to inhibit ROS production relative to the vehicle control.

Row | Compound | IC50 [nM]
1 | CCCc1ccc(O)c(O)c1 [(I-6), 2-hydroxy4-propylphenol] | 200
2 | CCCc1ccc(OC(C)=O)c(OC(C)=O)c1 [(I-8)] | 400
3 | CCCc1cc(O)ccc1O [(I-10)] | 120
4 | CC(C)(c1ccc(O)cc1)c1ccc(O)cc1 [(II-5), 4,4′-Isopropylidenediphenol] | 1000
5 | Cc1c(C)c2c(c(C)c1O)CCC(C)(CNNC(=N)N)O2 (stereo not drawn) [(IV-9)] | 1000

Second part, the compound after the results:

Row | IC50 [nM] | Compound
6 | 25 | CCCCCCCCc1ccc(O)c(N)c1 [(I-2), 2-amino4octyl phenol]
7 | 65 | CC(C)(C)CC(C)(C)c1ccc(O)c(N)c1 [(I-3)]
8 | 100 | OCCCc1ccc(O)c(O)c1 [(I-5)]
9 | 35 | CC(C)(c1ccc(O)c(N)c1)c1ccc(O)c(N)c1 [(II-2)]
10 | 10 | CN(C)c1cc(C(C)(C)c2ccc(O)c(N(C)C)c2)ccc1O [(II-6)]
11 | 70 | CC1=CC(C)(C)Nc2ccc(O)cc21 [(III-3), 2,2,4-trimethyl-1,2-dihydro-quinolin-6-ol]

Same assay, conditions: Homo sapiens, SH-SY5Y, 0.5 h, read-out: IC50 Cell-Based (Inhibition of ROS, DCFC assay)

Row | Compound | IC50 [nM]
12 | CC(C)(c1ccc(O)cc1)c1ccc(O)c(NC(=N)N)c1 [(II-10)] | 1000

Same assay, conditions: SH-SY5Y cells pre-loaded with DCFC-DA; ferric chloride/ascorbate induced free radical formation; fluorescence change over 30 minutes; read-out: IC50 Cell-Based (Inhibition of ROS, DCFC assay)

Row | Compound | IC50 [nM]
13 | CCOc1ccc2c(c1)C(C)=CC(C)(C)N2 [(III-4), 6-ethoxy-1,2-dihydro-2,2,4-trimethylguinoline] | 20

Tested on: SH-SY5Y neuroblastoma cells
Experiment: Ionomycin induced apoptosis (membrane blebbing by light microscopy)
Assay type: cell-based, human
Conditions: 10 μM ionomycin for 10 minutes, then 6h incubation at 37° C.; untreated cells <5%
Experimental: SH-SY5Y neuroblastoma cells (1×10^5 cells) are rinsed with one volume 1×PBS, and then treated with 10 μM ionomycin (Calbiochem, San Diego, Calif.) in DMEM supplemented with 10% fetal calf serum (FCS) (Gibco, Life Technologies, Grand Island, N.Y.) for 10 minutes, followed by two washes with DMEM (10% FCS). After 6h incubation at 37° C. in DMEM (10% FCS), cells are visualized by light microscopy (20X magnification). […] When cells are simultaneously treated with ionomycin and 2 mM creatine, the proportion of cells undergoing apoptosis as evidenced by membrane blebbing is reduced to approximately 10%. Candidate mitochondria protecting agents are assayed to determine whether they provides the same magnitude of protection from induction of apoptosis as does creatine in this ionomycin induced apoptosis assay.

Row | Compound | ionomycin treated cells exhibiting membrane blebbing (final stage of apoptosis)
14 | C[C@H](CCC(=O)O)C[C@H](C)C[C@H](C)C(=O)/C=C(\O)[C@H](C)C[C@H](C)C/C=C/[C@@H](C)[C@@H](O)[C@@H](C)[C@@H](O)C[C@@H]1CC[C@@](C)([C@H]2CC[C@@](C)([C@@H](C)O)O2)O1 [ionomycin] | Approximately 80%

Same assay, conditions: cells simultaneously treated with 10 μM ionomycin and 2 mM creatine; 6h incubation at 37° C.

Row | Compound | proportion of cells undergoing apoptosis as evidenced by membrane blebbing
15 | CN(CC(=O)O)C(=N)N [creatine] | approximately 10%
